Source: publication PMC12648313, “Enhancing the Efficacy, Utility, and Throughput of the Transcription Block Survival Peptide Library Screening Platform” (JACS Au, 2025)

How the values were obtained:
ATF2 bZIP-CRE DNA = assay: TBS peptide library screening, competition selection; type: cell-based, human ATF2 bZIP, in E. coli BL21-Gold; details: 11.3-million-member library; nine rounds of selection; 9xCRE mDHFR; selective M9, 37 °C
Description: This validates the new TBS design for the introduction of a transcriptional block and for the ability of antagonist peptides to restore bacterial growth in the CRE/CREB systems. We next constructed an 11.3-million-member peptide library to identify antagonists of ATF2, representing the first such effort to target this TF. This library design includes an N-terminal acidic domain, developed by Vinson and coworkers to engage bZIP DNA-binding domains (DBDs), followed by a semirandomized LZ region. Canonical coiled coil heptad repeat e and g positions were semirandomized to include glu, gln or lys options, with two exceptions to increase library diversity: e7 (ile, asn, asp or val) and g8 (leu, gln, glu or val). The a positions were randomized to select from leu, ile or val, to optimize hydrophobic packing in the coiled coil core, except a6 which also included asn or asp to investigate potential core polar interactions. The d positions were fixed as leu to promote formation of a desired parallel, dimeric coiled coil. […]
colonies: E = […] where E is the percentage of the library missing, m is the number of colonies collected and n is the library size. Library DNA quality was assessed by sequencing both the DNA pool and a number of single colonies to show degenerate codons in the correct positions in the pool and to show a diversity of library members from single […]

[1] = ATF2W alone; 222 nm, 1 to 95 °C, pH 7.4, 10 mM TCEP.HCl; two-state model
Method: (DMF). Deprotection was performed by addition of 0.75 mL 30% pyrrolidine into the coupling reaction. Peptides were acetylated at the N-terminus by a final reaction with 3x acetic anhydride, 4.5x diisopropylethylamine in DMF for one hour at room temperature. Incubation in a cleavage mixture (95% TFA, 2.5% triisopropylsilane, 2.5% H2O, 10 mL) for 4 h at room temperature cleaved the peptide from the resin and removed side chain protecting groups.
2.5% DODT was added to the cleavage cocktail for ATF2. The resin was removed by filtration and cleaved peptides were precipitated in diethyl ether at -80°C and centrifuged.
This pellet was washed a further four times with diethyl ether before it was dried overnight at room temperature. Peptides were resuspended in 1:1 water:acetonitrile (0.1% TFA) before purification using RP-HPLC with a Jupiter Proteo column (4-μm particle size, 90 Å pore size, 250 × 10 mm; Phenomenex) using a water:acetonitrile gradient (0.1% TFA). Peptide masses and purity (>95%) were verified by electrospray ionisation mass spectrometry. Upon solubilising in buffer, peptides were centrifuged to ensure insoluble/aggregated material was removed before peptide concentration determination.
Circular Dichroism: An Applied Photophysics Chirascan was used for CD measurements, with a 200 µL sample in a 1 mm path length CD cell. […]

ATF2 = target: T1, ATF2 (Homo sapiens, UniProt P15336); assay: CD thermal denaturation, ATF2/ATF2W mixture; type: binding
T1 construct: human ATF2 bZIP domain spans from Asp352 to Gln410; made in house; host or cells: chemical synthesis (Fmoc solid-phase peptide synthesis), no expression host
T1 sequence (P15336 352-410): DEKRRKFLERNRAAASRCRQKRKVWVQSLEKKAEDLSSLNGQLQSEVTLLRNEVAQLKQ
Description: removed before peptide concentration determination.
Peptide samples were suspended in 20

cJun-TRE complex = target: T2, cJun-TRE complex (Homo sapiens, UniProt P05412); assay: FP antagonism assay cJun-TRE; type: biochemical
T2 construct: In the case of the CREB1 and cJun bZIP domains

Ac-LEQQLEELAQENEELEKEAAELQQQIARLKNEVAKLENENKTLDREIKALQREYSHKSD-NH2 [ATF2W]
outcome of TBS selection (ATF2 bZIP-CRE DNA): single dominant hit
Tm [1]: 37 °C
ΔTm relative to ATF2W alone (ATF2; heterodimeric ATF2/ATF2W sample vs ATF2W alone): 18 °C
Tm (ATF2; heterodimeric ATF2/ATF2W sample, 222 nm, 1 to 95 °C, pH 7.4, 10 mM TCEP.HCl, two-state model): 55 °C
fold selectivity for ATF2 over cJun (cJun-TRE complex; FP IC50, cJun-TRE vs ATF2-CRE): ~3 -fold
IC50 (cJun-TRE complex; FP, FAM-TRE DNA, equivalent experiment, pH 7.4): 1850 ± 213 nM
